Measured values as given in PubChem BioAssay (NCI).
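1) Cells in 96-well plates. 2) Compound, 48 h, 5 concentrations. 3) Linear interpolation between surrounding doses. 4) Unreached endpoint = highest concentration. The concentration for full growth arrest is given as TGI.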

Assays:
Assay in all cases: NCI-60 cell line screen, 48 h
SK-MEL-28 melanoma = system: SK-MEL-28 melanoma
HS 578T breast = system: HS 578T breast
A549 NSCLC = system: A549 NSCLC
HL-60(TB) leukemia = system: HL-60(TB) leukemia
CAKI-1 renal = system: CAKI-1 renal
U251 CNS = system: U251 CNS
HCT-116 colon = system: HCT-116 colon
HCT-15 colon = system: HCT-15 colon
786-0 renal = system: 786-0 renal
RXF 393 renal = system: RXF 393 renal
HCC-2998 colon = system: HCC-2998 colon
DU-145 prostate = system: DU-145 prostate
NCI/ADR-RES ovarian = system: NCI/ADR-RES ovarian
M14 melanoma = system: M14 melanoma
SK-MEL-2 melanoma = system: SK-MEL-2 melanoma
NCI-H522 lung = system: NCI-H522 lung
SK-OV-3 ovarian = system: SK-OV-3 ovarian
SN12C renal = system: SN12C renal
HT29 colon = system: HT29 colon
HOP-92 NSCLC = system: HOP-92 NSCLC
CCRF-CEM leukemia = system: CCRF-CEM leukemia
SNB-75 CNS = system: SNB-75 CNS
K-562 leukemia = system: K-562 leukemia
IGROV1 ovarian = system: IGROV1 ovarian
MDA-N = system: MDA-N
HOP-62 NSCLC = system: HOP-62 NSCLC
MOLT-4 leukemia = system: MOLT-4 leukemia
BT-549 breast = system: BT-549 breast
SW-620 colon = system: SW-620 colon
KM12 colon = system: KM12 colon
SK-MEL-5 melanoma = system: SK-MEL-5 melanoma
OVCAR-4 ovarian = system: OVCAR-4 ovarian
MDA-MB-435 = system: MDA-MB-435
SF-268 CNS = system: SF-268 CNS
T-47D breast = system: T-47D breast
MALME-3M melanoma = system: MALME-3M melanoma
LOX IMVI melanoma = system: LOX IMVI melanoma
SF-295 CNS = system: SF-295 CNS
EKVX NSCLC = system: EKVX NSCLC
NCI-H460 lung = system: NCI-H460 lung
OVCAR-8 ovarian = system: OVCAR-8 ovarian
SR leukemia = system: SR leukemia
UACC-62 melanoma = system: UACC-62 melanoma
MDA-MB-231 breast = system: MDA-MB-231 breast
OVCAR-5 ovarian = system: OVCAR-5 ovarian
UO-31 renal = system: UO-31 renal
COLO 205 colon = system: COLO 205 colon
A498 renal = system: A498 renal
UACC-257 melanoma = system: UACC-257 melanoma
ACHN renal = system: ACHN renal
NCI-H23 lung = system: NCI-H23 lung
OVCAR-3 ovarian = system: OVCAR-3 ovarian
TK-10 renal = system: TK-10 renal
MCF7 breast = system: MCF7 breast
PC-3 prostate = system: PC-3 prostate
SF-539 CNS = system: SF-539 CNS
SNB-19 CNS = system: SNB-19 CNS

## CCNCCCNc1c2ccccc2nc2ccccc12
SK-MEL-28 melanoma
  TGI: 1.48 µM
HS 578T breast
  TGI: 3.13 µM
A549 NSCLC
  TGI: 3.38 µM
HL-60(TB) leukemia
  TGI: 54.9 µM
CAKI-1 renal
  TGI: 1.23 µM
U251 CNS
  TGI: > 100 µM
HCT-116 colon
  TGI: 8.36 µM
HCT-15 colon
  TGI: 1.54 µM
786-0 renal
  TGI: 5.39 µM
RXF 393 renal
  TGI: 2.83 µM
HCC-2998 colon
  TGI: 0.643 µM
DU-145 prostate
  TGI: 4.01 µM
NCI/ADR-RES ovarian
  TGI: 10.2 µM
M14 melanoma
  TGI: 0.95 µM
SK-MEL-2 melanoma
  TGI: 1.95 µM
NCI-H522 lung
  TGI: 0.7 µM
SK-OV-3 ovarian
  TGI: 6.55 µM
SN12C renal
  TGI: 2.2 µM
HT29 colon
  TGI: > 100 µM
HOP-92 NSCLC
  TGI: 3.11 µM
CCRF-CEM leukemia
  TGI: 10.1 µM
SNB-75 CNS
  TGI: 1.58 µM
K-562 leukemia
  TGI: 1.64 µM
IGROV1 ovarian
  TGI: 4.3 µM
MDA-N
  TGI: 1.26 µM
HOP-62 NSCLC
  TGI: 2.37 µM
MOLT-4 leukemia
  TGI: > 100 µM
BT-549 breast
  TGI: 10.5 µM
SW-620 colon
  TGI: 1.46 µM
KM12 colon
  TGI: 2.04 µM
SK-MEL-5 melanoma
  TGI: 1.47 µM
OVCAR-4 ovarian
  TGI: 3.2 µM
MDA-MB-435
  TGI: 1.77 µM
SF-268 CNS
  TGI: 4.47 µM
T-47D breast
  TGI: 3.35 µM
MALME-3M melanoma
  TGI: 2.26 µM
LOX IMVI melanoma
  TGI: 1.08 µM
SF-295 CNS
  TGI: 2.81 µM
EKVX NSCLC
  TGI: 21.2 µM
NCI-H460 lung
  TGI: 0.585 µM
OVCAR-8 ovarian
  TGI: 3.7 µM
SR leukemia
  TGI: 1.83 µM
UACC-62 melanoma
  TGI: 1.62 µM
MDA-MB-231 breast
  TGI: 2.5 µM
OVCAR-5 ovarian
  TGI: 1.04 µM
UO-31 renal
  TGI: 2.63 µM
COLO 205 colon
  TGI: 0.761 µM
A498 renal
  TGI: 3.2 µM
UACC-257 melanoma
  TGI: 1.7 µM
ACHN renal
  TGI: 0.47 µM
NCI-H23 lung
  TGI: 2.14 µM
OVCAR-3 ovarian
  TGI: 2 µM
TK-10 renal
  TGI: 16 µM
MCF7 breast
  TGI: 0.625 µM
PC-3 prostate
  TGI: 0.816 µM
SF-539 CNS
  TGI: 1.21 µM
SNB-19 CNS
  TGI: 2.98 µM

## COC(=O)C12C3C4(C(=O)OC)C1C1(C(=O)OC)C2C3(C(=O)OC)C41C(=O)N(C(C)C)C(C)C (configuration not stated)
SK-MEL-28 melanoma
  TGI: > 100 µM
HS 578T breast
  TGI: > 100 µM
A549 NSCLC
  TGI: > 100 µM
HL-60(TB) leukemia
  TGI: > 100 µM
CAKI-1 renal
  TGI: > 100 µM
U251 CNS
  TGI: > 100 µM
HCT-116 colon
  TGI: > 100 µM
HCT-15 colon
  TGI: > 100 µM
786-0 renal
  TGI: > 100 µM
RXF 393 renal
  TGI: > 100 µM
HCC-2998 colon
  TGI: > 100 µM
DU-145 prostate
  TGI: > 100 µM
NCI/ADR-RES ovarian
  TGI: > 100 µM
M14 melanoma
  TGI: > 100 µM
SK-MEL-2 melanoma
  TGI: > 100 µM
NCI-H522 lung
  TGI: > 100 µM
SN12C renal
  TGI: > 100 µM
HT29 colon
  TGI: > 100 µM
HOP-92 NSCLC
  TGI: > 100 µM
CCRF-CEM leukemia
  TGI: > 100 µM
SNB-75 CNS
  TGI: > 100 µM
K-562 leukemia
  TGI: > 100 µM
IGROV1 ovarian
  TGI: > 100 µM
MDA-N
  TGI: > 100 µM
HOP-62 NSCLC
  TGI: > 100 µM
MOLT-4 leukemia
  TGI: > 100 µM
BT-549 breast
  TGI: > 100 µM
SW-620 colon
  TGI: > 100 µM
KM12 colon
  TGI: > 100 µM
SK-MEL-5 melanoma
  TGI: > 100 µM
OVCAR-4 ovarian
  TGI: > 100 µM
MDA-MB-435
  TGI: > 100 µM
SF-268 CNS
  TGI: > 100 µM
T-47D breast
  TGI: > 100 µM
LOX IMVI melanoma
  TGI: > 100 µM
SF-295 CNS
  TGI: > 100 µM
EKVX NSCLC
  TGI: > 100 µM
NCI-H460 lung
  TGI: > 100 µM
OVCAR-8 ovarian
  TGI: > 100 µM
SR leukemia
  TGI: > 100 µM
UACC-62 melanoma
  TGI: > 100 µM
MDA-MB-231 breast
  TGI: > 100 µM
OVCAR-5 ovarian
  TGI: > 100 µM
UO-31 renal
  TGI: > 100 µM
COLO 205 colon
  TGI: > 100 µM
A498 renal
  TGI: > 100 µM
UACC-257 melanoma
  TGI: > 100 µM
ACHN renal
  TGI: > 100 µM
NCI-H23 lung
  TGI: > 100 µM
OVCAR-3 ovarian
  TGI: > 100 µM
TK-10 renal
  TGI: > 100 µM
MCF7 breast
  TGI: > 100 µM
PC-3 prostate
  TGI: > 100 µM
SF-539 CNS
  TGI: > 100 µM
SNB-19 CNS
  TGI: > 100 µM
